Biological target: T1, Mycobacterial beta-ketoacyl-[acyl-carrier-protein] synthase III (Mycobacterium tuberculosis, UniProt P9WNG3)
T1 sequence (P9WNG3 whole entry): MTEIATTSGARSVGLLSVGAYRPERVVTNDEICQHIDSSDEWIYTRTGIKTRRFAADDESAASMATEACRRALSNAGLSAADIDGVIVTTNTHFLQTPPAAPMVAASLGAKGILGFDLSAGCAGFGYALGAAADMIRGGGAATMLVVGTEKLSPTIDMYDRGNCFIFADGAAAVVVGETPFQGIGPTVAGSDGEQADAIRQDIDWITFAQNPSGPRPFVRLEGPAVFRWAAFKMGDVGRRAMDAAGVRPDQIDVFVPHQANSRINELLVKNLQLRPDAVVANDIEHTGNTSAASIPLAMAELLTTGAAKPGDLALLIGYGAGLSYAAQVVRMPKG
Assay: Inhibition of Mycobacterium tuberculosis FabH

Work on `CC1=C(O)C(C)(Cc2ccc(-c3ccc(-c4ccccc4)cc3)cc2)SC1=O` (stereo not given) yielded an IC50 of 68 µM.

`CC1=C(O)C(C)(Cc2ccc(-c3ccc(C)s3)cc2)SC1=O` (stereo not given) was tested, and the IC50 was 86 µM.

With `CC1=C(O)C(C)(Cc2ccc(-c3ccc(F)cc3)cc2)SC1=O` (stereo not given) the IC50 was 105 µM.

In the case of `CC(=O)c1cccc(-c2ccc(CC3(C)SC(=O)C(C)=C3O)cc2)c1` (stereo not given), the IC50 is reported as 150 µM.

`CC1=C(O)C(C)(Cc2ccc(-c3ccc(C(N)=O)cc3)cc2)SC1=O` (stereo not given) was tested, and the IC50 was 4 µM.

In the case of `CC1=C(O)C(C)(Cc2ccc(C(=O)c3ccccc3)cc2)SC1=O` (stereo not given), the IC50 is reported as 283 µM.

Compound `CC1=C(O)C(C)(Cc2ccc(-c3ccc(C(=O)O)cc3)cc2)SC1=O` (stereo not given) has an IC50 of 7 µM.

With `CC1=C(O)C(C)(Cc2ccc(-c3ccc(F)c(F)c3)cc2)SC1=O` (stereo not given) the IC50 was 207 µM.

`CC1=C(O)C(C)(Cc2ccc(-c3cccc(Cl)c3)cc2)SC1=O` (stereo not given) gave an IC50 of 156 µM.

For `COC(=O)c1ccc(-c2ccc(CC3(C)SC(=O)C(C)=C3O)cc2)cc1` (stereo not given), the IC50 was 3 µM.

In the case of `CC(=O)c1ccc(-c2ccc(CC3(C)SC(=O)C(C)=C3O)cc2)s1` (stereo not given), the IC50 is reported as 200 µM.

Compound `CC1=C(O)C(C)(Cc2ccc(-c3cc(F)cc(F)c3)cc2)SC1=O` (stereo not given) has an IC50 of 135 µM.

`CC1=C(O)C(C)(Cc2ccc(-c3ccc(Cl)cc3)cc2)SC1=O` (stereo not given) was tested, and the IC50 was 130 µM.

`CC1=C(O)C(C)(Cc2ccc(Oc3ccccc3)cc2)SC1=O` (stereo not given) showed an IC50 of 15 µM.

`CC(=O)c1ccc(-c2ccc(CC3(C)SC(=O)C(C)=C3O)cc2)cc1` (stereo not given) showed an IC50 of 54 µM.
